Measurements: patent publication US20040039019A1, “Selected anthranilaminde pyridinamides and their use as pharmaceutical agents” (Schering AG, priority 2002, published 2004)

Legend:
VEGFR II (KDR) = VEGFR II (KDR) (Homo sapiens, UniProt P35968); experiment: Inhibition of the KDR kinase activity; assay type: biochemical; conditions: poly-(Glu4Tyr) substrate, 33P-ATP, 10 minutes at room temperature
Method: Solutions Required for the Tests
Stock solution A: 3 mmol of ATP in water, pH 7.0 (−70° C.)
Stock solution B: g-33P-ATP 1 mCi/100 μl
Stock solution C: poly-(Glu4Tyr) 10 mg/ml in water
Substrate solvent: 10 mmol of DTT, 10 mmol of manganese chloride, 100 mmol of magnesium chloride
Enzyme solution: 120 mmol of tris/HCl, pH 7.5, 10 μM of sodium vanadium oxide
Inhibition of the KDR- and FLT-1 Kinase Activity in the Presence of the Compounds According to the Invention
In a microtiter plate (without protein binding) that tapers to a point, 10 μl of substrate mix (10 μl of volume of ATP stock solution A +25 μCi of g-33P-ATP (about 2.5 μl of stock solution B)+30 μl of poly-(Glu4Tyr) stock solution C+1.21 ml of substrate solvent), 10 μl of inhibitor solution (substances corresponding to the dilutions, 3% DMSO in substrate solvent as a control) and 10 μl of enzyme solution (11.25 μg of enzyme stock solution (KDR or FLT-1 kinase) are added at 4° C. in 1.25 ml of enzyme solution (dilute). It is thoroughly mixed and incubated for 10 minutes at room temperature. Then, 10 μl of stop solution (250 mmol of EDTA, pH 7.0) is added, mixed, and 10 μl of the solution is transferred to a P 81 phosphocellulose filter. Then, it is washed several times in 0.1 M phosphoric acid. The filter paper is dried, coated with Meltilex and measured in a microbeta counter. […]

[1] = target: T1, human Cytochrome P 450 1A2 (Homo sapiens, UniProt P05177); experiment: Cytochrome P450 inhibition, isoenzyme 1A2; assay type: in vitro ADME; conditions: baculovirus/insect cell-expressed human isoenzyme 1A2; read-out: Inhibition of the Cytochrome P450 Isoenzymes (IC50) 1A2
T1 construct: host or cells: baculovirus/insect cells
T1 sequence (P05177 1-516): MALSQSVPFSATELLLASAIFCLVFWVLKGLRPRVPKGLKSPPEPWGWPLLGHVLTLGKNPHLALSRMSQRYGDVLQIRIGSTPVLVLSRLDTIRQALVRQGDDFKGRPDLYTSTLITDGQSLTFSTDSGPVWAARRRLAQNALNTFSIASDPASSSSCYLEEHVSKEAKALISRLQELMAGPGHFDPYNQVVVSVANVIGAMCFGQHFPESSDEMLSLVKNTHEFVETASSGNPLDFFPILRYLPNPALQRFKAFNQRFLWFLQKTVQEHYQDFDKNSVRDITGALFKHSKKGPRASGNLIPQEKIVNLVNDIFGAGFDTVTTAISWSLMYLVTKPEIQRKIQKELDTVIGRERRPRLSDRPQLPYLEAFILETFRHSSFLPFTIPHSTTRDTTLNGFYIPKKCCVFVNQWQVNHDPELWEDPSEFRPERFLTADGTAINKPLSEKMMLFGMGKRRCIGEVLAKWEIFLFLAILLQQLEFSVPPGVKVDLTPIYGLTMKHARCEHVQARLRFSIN
Method: (§1) Cytochrome P450 Inhibition
(§2) The Cytochrome P450 inhibition was performed according to the publication of Crespi et al. (Anal. Biochem., 248, 188-190 (1997)) with use of baculovirus/insect cell-expressed, human Cytochrome P 450 isoenzymes (1A2, 2C9, 2C19, 2D6, 3A4).

[2] = target: T2, human Cytochrome P 450 2C9 (Homo sapiens, UniProt P11712); experiment: Cytochrome P450 inhibition, isoenzyme 2C9; assay type: in vitro ADME; conditions: baculovirus/insect cell-expressed human isoenzyme 2C9; read-out: Inhibition of the Cytochrome P450 Isoenzymes (IC50) 2C9
T2 construct: host or cells: baculovirus/insect cells
T2 sequence (P11712 whole entry): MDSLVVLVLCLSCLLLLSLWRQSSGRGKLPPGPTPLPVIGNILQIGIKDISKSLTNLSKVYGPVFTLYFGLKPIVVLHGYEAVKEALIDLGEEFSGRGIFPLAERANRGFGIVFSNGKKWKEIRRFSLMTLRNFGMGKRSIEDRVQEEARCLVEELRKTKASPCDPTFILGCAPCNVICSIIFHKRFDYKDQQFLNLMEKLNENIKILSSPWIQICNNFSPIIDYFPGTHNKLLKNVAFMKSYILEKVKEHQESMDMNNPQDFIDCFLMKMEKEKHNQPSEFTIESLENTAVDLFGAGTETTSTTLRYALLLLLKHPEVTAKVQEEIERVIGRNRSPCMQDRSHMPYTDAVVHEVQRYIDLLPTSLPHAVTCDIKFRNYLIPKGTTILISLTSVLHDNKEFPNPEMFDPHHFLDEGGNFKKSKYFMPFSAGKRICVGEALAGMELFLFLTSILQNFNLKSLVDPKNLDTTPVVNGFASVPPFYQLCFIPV
Method: as §1, §2

[3] = target: T3, human Cytochrome P 450 2C19 (Homo sapiens, UniProt P33261); experiment: Cytochrome P450 inhibition, isoenzyme 2C19; assay type: in vitro ADME; conditions: baculovirus/insect cell-expressed human isoenzyme 2C19; read-out: Inhibition of the Cytochrome P450 Isoenzymes (IC50) 2C19
T3 construct: host or cells: baculovirus/insect cells
T3 sequence (P33261 whole entry): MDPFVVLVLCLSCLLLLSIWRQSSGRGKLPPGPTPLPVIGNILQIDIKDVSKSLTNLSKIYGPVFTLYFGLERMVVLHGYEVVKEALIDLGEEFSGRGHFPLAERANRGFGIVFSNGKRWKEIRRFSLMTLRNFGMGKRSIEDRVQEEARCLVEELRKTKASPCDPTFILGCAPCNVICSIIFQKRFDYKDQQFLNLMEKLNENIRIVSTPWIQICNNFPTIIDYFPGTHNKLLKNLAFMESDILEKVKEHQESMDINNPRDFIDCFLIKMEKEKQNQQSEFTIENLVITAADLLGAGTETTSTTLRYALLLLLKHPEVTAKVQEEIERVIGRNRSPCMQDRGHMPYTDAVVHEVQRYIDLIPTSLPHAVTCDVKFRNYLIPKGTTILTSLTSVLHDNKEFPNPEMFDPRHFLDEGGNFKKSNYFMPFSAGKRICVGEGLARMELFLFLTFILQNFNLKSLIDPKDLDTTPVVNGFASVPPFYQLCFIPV
Method: as §1, §2

[4] = target: T4, human Cytochrome P 450 2D6 (Homo sapiens, UniProt P10635); experiment: Cytochrome P450 inhibition, isoenzyme 2D6; assay type: in vitro ADME; conditions: baculovirus/insect cell-expressed human isoenzyme 2D6; read-out: Inhibition of the Cytochrome P450 Isoenzymes (IC50) 2D6
T4 construct: host or cells: baculovirus/insect cells
T4 sequence (P10635 whole entry): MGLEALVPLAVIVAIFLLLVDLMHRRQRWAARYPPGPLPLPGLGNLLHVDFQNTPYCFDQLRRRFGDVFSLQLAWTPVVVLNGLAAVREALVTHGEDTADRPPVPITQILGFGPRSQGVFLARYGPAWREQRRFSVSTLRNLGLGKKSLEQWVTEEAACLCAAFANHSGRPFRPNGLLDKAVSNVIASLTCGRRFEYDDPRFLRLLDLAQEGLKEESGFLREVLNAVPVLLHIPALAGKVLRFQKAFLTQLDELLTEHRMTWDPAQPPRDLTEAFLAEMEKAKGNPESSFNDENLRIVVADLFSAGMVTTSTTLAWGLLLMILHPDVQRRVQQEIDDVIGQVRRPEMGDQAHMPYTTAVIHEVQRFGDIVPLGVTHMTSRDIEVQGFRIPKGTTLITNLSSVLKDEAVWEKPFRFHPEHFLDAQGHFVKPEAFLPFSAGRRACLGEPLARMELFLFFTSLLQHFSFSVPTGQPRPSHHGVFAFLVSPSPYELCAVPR
Method: as §1, §2

[5] = target: T5, human Cytochrome P 450 3A4 (Homo sapiens, UniProt P08684); experiment: Cytochrome P450 inhibition, isoenzyme 3A4; assay type: in vitro ADME; conditions: baculovirus/insect cell-expressed human isoenzyme 3A4; read-out: Inhibition of the Cytochrome P450 Isoenzymes (IC50) 3A4
T5 construct: host or cells: baculovirus/insect cells
T5 sequence (P08684 whole entry): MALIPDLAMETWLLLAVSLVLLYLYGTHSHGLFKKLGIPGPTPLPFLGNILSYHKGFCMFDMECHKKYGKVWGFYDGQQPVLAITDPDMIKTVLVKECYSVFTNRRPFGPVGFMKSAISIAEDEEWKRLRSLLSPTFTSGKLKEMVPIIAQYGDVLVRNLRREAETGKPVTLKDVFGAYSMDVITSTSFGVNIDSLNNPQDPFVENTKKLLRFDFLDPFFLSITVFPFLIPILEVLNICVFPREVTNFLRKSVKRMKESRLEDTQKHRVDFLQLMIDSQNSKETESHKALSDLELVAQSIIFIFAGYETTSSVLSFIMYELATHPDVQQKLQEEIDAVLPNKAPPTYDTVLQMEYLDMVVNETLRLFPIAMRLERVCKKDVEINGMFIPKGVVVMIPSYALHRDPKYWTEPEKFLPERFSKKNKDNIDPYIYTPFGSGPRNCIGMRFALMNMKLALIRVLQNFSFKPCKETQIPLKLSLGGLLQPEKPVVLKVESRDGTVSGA
Method: as §1, §2

Chain of VEGFR II (KDR) (P35968 20-1356, species assumed): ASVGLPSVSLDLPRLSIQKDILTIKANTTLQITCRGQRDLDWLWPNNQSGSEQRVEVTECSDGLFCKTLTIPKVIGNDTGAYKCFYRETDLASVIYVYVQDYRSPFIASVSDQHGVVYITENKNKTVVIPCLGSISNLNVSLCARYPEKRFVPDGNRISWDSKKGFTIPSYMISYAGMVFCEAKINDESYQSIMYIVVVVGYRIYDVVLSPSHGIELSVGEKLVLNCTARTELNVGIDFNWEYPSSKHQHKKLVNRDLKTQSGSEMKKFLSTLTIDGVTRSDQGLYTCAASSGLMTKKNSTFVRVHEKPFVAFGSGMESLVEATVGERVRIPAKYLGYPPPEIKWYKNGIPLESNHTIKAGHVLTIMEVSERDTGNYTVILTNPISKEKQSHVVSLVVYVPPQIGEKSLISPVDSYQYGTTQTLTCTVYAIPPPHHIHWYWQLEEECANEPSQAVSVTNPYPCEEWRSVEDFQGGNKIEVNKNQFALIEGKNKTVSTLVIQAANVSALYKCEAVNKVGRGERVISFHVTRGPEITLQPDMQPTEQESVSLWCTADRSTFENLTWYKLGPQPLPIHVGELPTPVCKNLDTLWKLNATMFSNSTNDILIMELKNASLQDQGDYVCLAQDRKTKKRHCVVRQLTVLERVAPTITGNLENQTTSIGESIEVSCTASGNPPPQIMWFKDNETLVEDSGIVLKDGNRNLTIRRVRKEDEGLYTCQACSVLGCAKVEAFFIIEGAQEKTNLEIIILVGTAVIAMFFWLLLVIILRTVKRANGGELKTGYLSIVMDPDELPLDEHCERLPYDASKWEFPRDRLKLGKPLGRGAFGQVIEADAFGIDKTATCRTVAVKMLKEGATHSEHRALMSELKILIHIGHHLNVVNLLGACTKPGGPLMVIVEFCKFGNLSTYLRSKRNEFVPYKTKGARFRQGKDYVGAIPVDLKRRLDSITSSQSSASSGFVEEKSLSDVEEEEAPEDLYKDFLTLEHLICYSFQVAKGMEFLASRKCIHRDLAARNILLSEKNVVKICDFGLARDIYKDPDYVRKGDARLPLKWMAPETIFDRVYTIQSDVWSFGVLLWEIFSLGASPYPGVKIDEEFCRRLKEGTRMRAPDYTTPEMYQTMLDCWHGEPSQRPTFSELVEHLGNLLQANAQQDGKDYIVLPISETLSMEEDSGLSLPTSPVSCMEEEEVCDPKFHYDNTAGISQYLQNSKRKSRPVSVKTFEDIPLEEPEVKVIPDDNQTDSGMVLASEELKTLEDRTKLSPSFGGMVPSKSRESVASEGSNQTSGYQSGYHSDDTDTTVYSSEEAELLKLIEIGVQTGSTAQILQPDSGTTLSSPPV

IC50 (VEGFR II (KDR)): 0.05 µM
IC50 [1]: > 30 µM
IC50 [2]: 23 µM
IC50 [3]: > 30 µM
IC50 [4]: > 30 µM
IC50 [5]: > 30 µM
SMILES: O=C1Cc2ccc(NC(=O)c3ccccc3NCc3ccc(=O)[nH]c3)cc2N1 [Example 1.0, N-(2-Oxo-2,3-dihydro-1H-indol-6-yl)-2-[(6-oxo-1,6-dihydro-pyridin-3-ylmethyl)-amino]-benzamide]
